In brackets after ≈: the same amount, converted by molar mass.
Columns and labels:
[1] = Volume of distribution at steady state in rat at 1 mg/kg,po or 0.5 mg/kg,iv administration measured for 24 hrs by LC-MS/MS analysis; assay type: ADME, organism-based; settings: in vivo
[2] = Volume of distribution at steady state in dog at 2 mg/kg,po or 1 mg/kg,iv administration measured for 24 hrs by LC-MS/MS analysis; assay type: ADME, organism-based, Canis lupus familiaris; settings: in vivo
[3] = Bioavailability in rat at 1 mg/kg,po or 0.5 mg/kg,iv administration measured for 24 hrs by LC-MS/MS analysis; assay type: ADME, organism-based; settings: in vivo
[4] = Dissociation constant, pKa of compound; assay type: physicochemical
[5] = Bioavailability in dog at 2 mg/kg,po or 1 mg/kg,iv administration measured for 24 hrs by LC-MS/MS analysis; assay type: ADME, organism-based, Canis lupus familiaris; settings: in vivo
[6] = Intrinsic clearance in human hepatocyte assessed per 10^6 cells; assay type: ADME, cell-based; settings: hepatocytes, read-out: CLH
[7] = molecular target: Serine/threonine-protein kinase ATR (Homo sapiens, UniProt Q13535); experiment: Inhibition of ATR in human HT-29 cells incubated for 2 hrs by Alexa Fluor 488/Hoeschst staining based plate reader assay; assay type: cell-based
[8] = Aqueous solubility of the compound in pH 7.4; assay type: physicochemical; settings: buffer
[9] = Lipophilicity, logD of the compound at pH 7.4; assay type: physicochemical; settings: buffer
[10] = test system: MDR1, BCRP; experiment: Efflux ratio of apparent permeability across basolateral to apical side over apical to basolateral side in dog MDCKII-MDR1 cells overexpressing BCRP at 0.1 uM incubated for 90 mins by LC-MS/MS analysis; assay type: ADME, cell-based, Canis lupus familiaris, MDCK-MDR1
[11] = Apparent permeability across apical to basolateral side in dog MDCKII-MDR1 cells overexpressing BCRP at 0.1 uM incubated for 90 mins by LC-MS/MS analysis; assay type: ADME, cell-based, Canis lupus familiaris, MDCK-MDR1
[12] = Intrinsic clearance in rat hepatocyte assessed per 10^6 cells; assay type: ADME, cell-based; settings: hepatocytes, read-out: CLH
[13] = test system: MDR1, BCRP; experiment: Efflux ratio of apparent permeability across basolateral to apical side over apical to basolateral side in dog MDCKII-MDR1 cells overexpressing BCRP at 1 uM incubated for 90 mins by LC-MS/MS analysis; assay type: ADME, cell-based, Canis lupus familiaris, MDCK-MDR1
[14] = Apparent permeability across apical to basolateral side in dog MDCKII-MDR1 cells overexpressing BCRP at 1 uM incubated for 90 mins by LC-MS/MS analysis; assay type: ADME, cell-based, Canis lupus familiaris, MDCK-MDR1
[15] = Tmax in Cynomolgus monkey at iv administered as bolus injection measured at 4 to 90 mins by gamma counter analysis; assay type: ADME, organism-based, Macaca fascicularis; settings: in vivo, time 4-90 min
[16] = Plasma protein binding in dog assessed as unbound fraction incubated for 16 hrs by equilibrium dialysis based UPLC-MS/MS analysis; assay type: ADME, cell-free, Canis lupus familiaris
[17] = Plasma protein binding in rat assessed as unbound fraction incubated for 16 hrs by equilibrium dialysis based UPLC-MS/MS analysis; assay type: ADME, cell-free
[18] = molecular target: Phosphatidylinositol 4,5-bisphosphate 3-kinase catalytic subunit alpha isoform (Homo sapiens, UniProt P42336); experiment: Inhibition of PI3Kalpha in human BT-474 cells incubated for 140 mins by ELISA; assay type: cell-based
[19] = Half life in rat at 1 mg/kg,po or 0.5 mg/kg,iv administration measured for 24 hrs by LC-MS/MS analysis; assay type: ADME, organism-based; settings: in vivo
[20] = molecular target: DNA-dependent protein kinase catalytic subunit (Homo sapiens, UniProt P78527); experiment: Inhibition of DNA-PK (unknown origin)
[21] = Half life in dog at 2 mg/kg,po or 1 mg/kg,iv administration measured for 24 hrs by LC-MS/MS analysis; assay type: ADME, organism-based, Canis lupus familiaris; settings: in vivo
[22] = Plasma protein binding in human assessed as unbound fraction incubated for 16 hrs by equilibrium dialysis based UPLC-MS/MS analysis; assay type: ADME, cell-free
[23] = molecular target: Serine/threonine-protein kinase mTOR (Homo sapiens, UniProt P42345); experiment: Inhibition of mTOR in human MDA-MB-468 cells incubated for 2.5 hrs by Alexa Fluor 488 staining based fluorescence analysis; assay type: cell-based
[24] = molecular target: Serine-protein kinase ATM (Homo sapiens, UniProt Q13315); experiment: Inhibition of ATM in human HT-29 cells incubated for 2 hrs by Alexa Fluor 488/Hoeschst staining based plate reader assay; assay type: cell-based

Sequence of Serine/threonine-protein kinase ATR (Q13535 whole entry): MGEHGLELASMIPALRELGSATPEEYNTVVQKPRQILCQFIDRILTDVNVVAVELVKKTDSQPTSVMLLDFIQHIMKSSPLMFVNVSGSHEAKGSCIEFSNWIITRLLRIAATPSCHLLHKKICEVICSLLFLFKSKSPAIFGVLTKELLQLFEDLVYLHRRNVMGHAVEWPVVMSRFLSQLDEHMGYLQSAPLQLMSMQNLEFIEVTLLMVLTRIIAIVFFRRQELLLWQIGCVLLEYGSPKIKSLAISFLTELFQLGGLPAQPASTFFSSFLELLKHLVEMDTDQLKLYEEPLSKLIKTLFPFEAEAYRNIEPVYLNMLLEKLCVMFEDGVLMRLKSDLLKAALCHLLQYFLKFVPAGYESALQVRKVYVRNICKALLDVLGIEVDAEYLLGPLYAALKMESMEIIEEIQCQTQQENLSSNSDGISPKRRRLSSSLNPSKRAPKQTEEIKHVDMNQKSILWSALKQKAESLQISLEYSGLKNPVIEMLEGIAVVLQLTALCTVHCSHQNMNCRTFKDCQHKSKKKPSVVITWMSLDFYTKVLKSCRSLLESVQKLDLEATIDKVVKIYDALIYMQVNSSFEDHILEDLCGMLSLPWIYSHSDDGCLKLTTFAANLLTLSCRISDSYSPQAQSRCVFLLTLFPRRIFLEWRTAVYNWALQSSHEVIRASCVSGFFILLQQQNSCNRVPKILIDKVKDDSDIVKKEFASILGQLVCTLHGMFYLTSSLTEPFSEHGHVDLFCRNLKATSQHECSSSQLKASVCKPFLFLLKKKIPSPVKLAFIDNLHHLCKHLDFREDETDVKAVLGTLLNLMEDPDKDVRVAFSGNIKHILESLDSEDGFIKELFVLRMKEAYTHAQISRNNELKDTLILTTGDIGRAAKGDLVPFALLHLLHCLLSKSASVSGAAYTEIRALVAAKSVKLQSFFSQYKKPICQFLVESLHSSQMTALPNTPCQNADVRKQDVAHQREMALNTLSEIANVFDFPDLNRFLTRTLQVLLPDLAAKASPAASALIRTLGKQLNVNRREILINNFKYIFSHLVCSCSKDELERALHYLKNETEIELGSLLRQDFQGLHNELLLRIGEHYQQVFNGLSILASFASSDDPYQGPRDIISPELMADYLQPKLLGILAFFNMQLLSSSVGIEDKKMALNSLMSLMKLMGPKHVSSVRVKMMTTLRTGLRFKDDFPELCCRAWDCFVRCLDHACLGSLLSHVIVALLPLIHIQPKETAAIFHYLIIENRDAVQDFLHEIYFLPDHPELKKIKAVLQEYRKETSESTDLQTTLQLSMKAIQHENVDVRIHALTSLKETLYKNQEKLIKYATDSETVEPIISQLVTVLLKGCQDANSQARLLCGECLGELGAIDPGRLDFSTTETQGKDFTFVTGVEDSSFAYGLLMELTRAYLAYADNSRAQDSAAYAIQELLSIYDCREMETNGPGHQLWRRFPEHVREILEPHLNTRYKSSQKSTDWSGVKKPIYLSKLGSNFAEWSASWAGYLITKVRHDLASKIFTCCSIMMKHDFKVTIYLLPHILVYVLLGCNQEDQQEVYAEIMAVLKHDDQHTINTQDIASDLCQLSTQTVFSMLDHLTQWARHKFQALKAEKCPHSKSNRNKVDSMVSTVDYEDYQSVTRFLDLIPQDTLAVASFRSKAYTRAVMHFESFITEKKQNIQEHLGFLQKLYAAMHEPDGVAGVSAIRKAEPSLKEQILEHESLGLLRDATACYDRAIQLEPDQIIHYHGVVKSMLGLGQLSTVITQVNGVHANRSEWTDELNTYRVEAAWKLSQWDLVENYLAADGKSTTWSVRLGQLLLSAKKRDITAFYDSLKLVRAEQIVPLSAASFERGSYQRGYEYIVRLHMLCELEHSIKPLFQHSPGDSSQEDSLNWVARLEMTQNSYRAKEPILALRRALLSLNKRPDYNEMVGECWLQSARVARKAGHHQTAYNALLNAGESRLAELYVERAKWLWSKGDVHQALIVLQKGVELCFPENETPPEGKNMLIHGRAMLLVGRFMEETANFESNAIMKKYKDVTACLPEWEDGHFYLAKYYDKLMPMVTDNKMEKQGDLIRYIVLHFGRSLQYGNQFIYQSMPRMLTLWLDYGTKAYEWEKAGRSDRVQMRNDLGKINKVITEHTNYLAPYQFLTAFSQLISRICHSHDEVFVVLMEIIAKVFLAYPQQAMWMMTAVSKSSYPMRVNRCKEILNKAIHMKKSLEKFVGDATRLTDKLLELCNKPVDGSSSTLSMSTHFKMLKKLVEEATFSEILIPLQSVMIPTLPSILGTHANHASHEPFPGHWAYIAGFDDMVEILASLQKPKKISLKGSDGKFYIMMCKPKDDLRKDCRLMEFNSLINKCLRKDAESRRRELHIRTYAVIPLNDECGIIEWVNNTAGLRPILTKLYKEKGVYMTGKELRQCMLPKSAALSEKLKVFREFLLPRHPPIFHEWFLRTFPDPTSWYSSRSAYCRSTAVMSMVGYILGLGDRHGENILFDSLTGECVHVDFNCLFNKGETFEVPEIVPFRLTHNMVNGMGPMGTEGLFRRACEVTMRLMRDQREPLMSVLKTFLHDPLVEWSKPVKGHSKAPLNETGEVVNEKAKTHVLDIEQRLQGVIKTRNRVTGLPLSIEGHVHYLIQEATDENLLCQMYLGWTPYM
Sequence of Phosphatidylinositol 4,5-bisphosphate 3-kinase catalytic subunit alpha isoform (P42336 whole entry, canonical isoform): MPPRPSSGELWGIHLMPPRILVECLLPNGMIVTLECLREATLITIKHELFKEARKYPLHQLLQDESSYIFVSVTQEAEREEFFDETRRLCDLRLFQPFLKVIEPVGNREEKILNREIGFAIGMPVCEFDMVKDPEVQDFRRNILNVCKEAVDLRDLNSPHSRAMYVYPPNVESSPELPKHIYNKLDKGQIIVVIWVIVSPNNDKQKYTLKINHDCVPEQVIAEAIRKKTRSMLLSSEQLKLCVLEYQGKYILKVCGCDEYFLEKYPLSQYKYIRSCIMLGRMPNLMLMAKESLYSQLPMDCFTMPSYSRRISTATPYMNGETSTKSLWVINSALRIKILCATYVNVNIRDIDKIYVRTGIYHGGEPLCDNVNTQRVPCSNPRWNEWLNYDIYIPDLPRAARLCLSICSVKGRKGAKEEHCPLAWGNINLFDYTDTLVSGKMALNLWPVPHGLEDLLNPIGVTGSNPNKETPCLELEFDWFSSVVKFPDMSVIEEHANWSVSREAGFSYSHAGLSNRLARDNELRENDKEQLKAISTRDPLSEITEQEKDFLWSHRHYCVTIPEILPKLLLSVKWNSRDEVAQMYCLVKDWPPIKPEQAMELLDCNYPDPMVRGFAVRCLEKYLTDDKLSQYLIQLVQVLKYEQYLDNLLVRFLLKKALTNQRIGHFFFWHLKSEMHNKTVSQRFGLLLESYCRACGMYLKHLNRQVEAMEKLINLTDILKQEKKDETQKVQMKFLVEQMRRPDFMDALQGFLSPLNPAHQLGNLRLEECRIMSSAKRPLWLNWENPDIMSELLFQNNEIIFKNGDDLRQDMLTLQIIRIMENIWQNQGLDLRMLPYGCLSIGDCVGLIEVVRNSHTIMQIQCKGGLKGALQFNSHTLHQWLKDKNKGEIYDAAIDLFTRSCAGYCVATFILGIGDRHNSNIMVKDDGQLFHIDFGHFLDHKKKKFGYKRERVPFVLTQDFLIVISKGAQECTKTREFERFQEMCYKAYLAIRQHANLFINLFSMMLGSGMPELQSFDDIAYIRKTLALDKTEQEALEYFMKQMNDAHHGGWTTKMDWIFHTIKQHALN

hepatocyte CLint [6] [µL/min/1e6 cells]	IC50 [7] [µM]	solubility [8] [µM]	logD [9]	Papp A→B at […], 0.1 µM [11] [nm/s]	hepatocyte CLint [12] [µL/min/1e6 cells]	Papp A→B at […], 1 µM [14] [nm/s]	SMILES	also measured
							CN(C)CCCOc1ccc(-c2ccc3ncc4c(c3c2)n(C2CCOCC2)c(=O)n4C)cn1	Vdss [1]: 4.3 L/kg; Vdss [2]: 18 L/kg; bioavailability [3]: 57%; pKa [4]: 9.4; bioavailability [5]: 54%
< 3	> 12.6	19 (≈ 7.68 µg/mL)	2.3				COCc1ccc(-c2ccc3ncc4c(c3c2)n(C2CCOCC2)c(=O)n4C)cn1	
5.2	> 20	480 (≈ 201 µg/mL)	1.9	130	14	210	CC(C)n1c(=O)n(C)c2cnc3ccc(-c4ccc(OCCCN(C)C)nc4)cc3c21	efflux ratio at […], 0.1 µM [10]: 6.3; efflux ratio at […], 1 µM [13]: 2.1
3.2		125 (≈ 50.6 µg/mL)	2.5	350	28	270	COCc1ccc(-c2ccc3ncc4c(c3c2)n([C@H]2CCCOC2)c(=O)n4C)cn1	
							CN(C)CCCOc1ccc(-c2ccc3ncc4c(c3c2)n(C2CCOCC2)c(=O)n4[11CH3])cn1	Tmax [15]: 0.333 h
18	> 31.6	323 (≈ 135 µg/mL)	2.7		46	240	CC(C)n1c(=O)n(C)c2cnc3ccc(-c4ccc(OCCCN(C)C)cc4)cc3c21	
6.2		> 1000	2.4		15	270	CC(C)n1c(=O)n(C)c2cnc3ccc(-c4ccc(O[C@H]5CCN(C)C5)nc4)cc3c21	
6.7	> 31.6	680 (≈ 298 µg/mL)	2.1	230	13	560	CC(C)n1c(=O)n(C)c2cnc3cc(F)c(-c4ccc(OCCCN(C)C)nc4)cc3c21	Vdss [1]: 4.1 L/kg; Vdss [2]: 18 L/kg; fraction unbound at 16 h [16]: 0.42; fraction unbound at 16 h [17]: 0.17; IC50 [18]: 15.8 µM; half-life [19]: 3.2 h; IC50 [20]: > 31.6 µM; half-life [21]: 6.4 h; fraction unbound at 16 h [22]: 0.32; bioavailability [3]: 48%; IC50 [23]: > 31.6 µM; bioavailability [5]: 31%
34		42 (≈ 15.2 µg/mL)	2.7	390	9		COCc1ccc(-c2ccc3ncc4c(c3c2)n(C(C)C)c(=O)n4C)cn1	
2.1	> 15.8	39 (≈ 16.9 µg/mL)	1.9	50	19		CC(C)n1c(=O)n(C)c2cnc3ccc(-c4ccc(OCCCCN(C)C)nc4)cc3c21	
2.4		826 (≈ 380 µg/mL)	2.6		5.8	250	CC(C)n1c(=O)n(C)c2cnc3ccc(-c4ccc(OCCCN5CCCCC5)nc4)cc3c21	
5.7	> 31.6	> 1000	1.7	150	15	230	CC(C)n1c(=O)n(C)c2cnc3ccc(-c4ccc(OC[C@@H]5CCN(C)C5)nc4)cc3c21	
4.8		10 (≈ 4.17 µg/mL)	3	180	44	320	CC(C)n1c(=O)n(C)c2cnc3ccc(-c4ccc(N5CC(N(C)C)C5)nc4)cc3c21	pKa [4]: 7.1
6.1	> 25.1	421 (≈ 171 µg/mL)	2.1		24	520	CC(C)n1c(=O)n(C)c2cnc3ccc(-c4ccc(OCCN(C)C)nc4)cc3c21	
3.8		137 (≈ 59 µg/mL)	3		25	220	CC(C)n1c(=O)n(C)c2cnc3ccc(-c4ccc(N5CC[C@H](N(C)C)C5)nc4)cc3c21	
< 1	> 31.6	928 (≈ 398 µg/mL)	1.7		2.4	60	CC(C)n1c(=O)n(C)c2cnc3ccc(-c4ccc(N5CC6(CN(C)C6)C5)nc4)cc3c21	
8.7		604 (≈ 287 µg/mL)	2.7	97	8.7	180	CO[C@H]1CC[C@H](n2c(=O)n(C)c3cnc4ccc(-c5ccc(OCCCN(C)C)cc5)cc4c32)C1	
2.6		> 1000	2.4	170	6.6		CO[C@H]1C[C@H](n2c(=O)n(C)c3cnc4ccc(-c5ccc(OCCCN6CCCCC6)nc5)cc4c32)C1	Vdss [1]: 2.4 L/kg; fraction unbound at 16 h [16]: 0.22; fraction unbound at 16 h [17]: 0.04; IC50 [18]: 2 µM; half-life [19]: 4 h; fraction unbound at 16 h [22]: 0.19; bioavailability [3]: 19%; IC50 [23]: > 1.26 µM
6.5	> 31.6	17 (≈ 7.39 µg/mL)	3.2	170	22	190	CC(C)n1c(=O)n(C)c2cnc3cc(F)c(-c4ccc(N5CCN(C)CC5)nc4)cc3c21	pKa [4]: 7.8
2.4	> 31.6	787 (≈ 364 µg/mL)	2.4	94	6.3	220	CC(C)n1c(=O)n(C)c2cnc3cc(F)c(-c4ccc(N5CCC(N(C)C)CC5)nc4)cc3c21	pKa [4]: 9.1
< 1		521 (≈ 225 µg/mL)	2.7	390	12		COCc1ccc(-c2ccc3ncc4c(c3c2)n([C@@H]2CCOCC2(C)C)c(=O)n4C)cn1	Vdss [1]: 1.9 L/kg; Vdss [2]: 3.7 L/kg; fraction unbound at 16 h [16]: 0.23; fraction unbound at 16 h [17]: 0.14; IC50 [18]: > 5.01 µM; half-life [19]: 1.1 h; IC50 [20]: 1.58 µM; half-life [21]: 3.3 h; fraction unbound at 16 h [22]: 0.08; bioavailability [3]: 39%; IC50 [23]: 0.501 µM; bioavailability [5]: 9%
2.9	> 15.8	88 (≈ 44.1 µg/mL)	2.5	75	5.3	130	Cn1c(=O)n(C2CCOCC2)c2c3cc(-c4ccc(OCCCN5CCCCC5)cc4)ccc3ncc21	
3.5		990 (≈ 400 µg/mL)	2		20	32	COCc1ccc(-c2ccc3ncc4c(c3c2)n([C@H]2C[C@@H](CO)C2)c(=O)n4C)cn1	
7.9	> 31.6	851 (≈ 392 µg/mL)	2.4	97	8.1	220	CN(C)CCCOc1ccc(-c2ccc3ncc4c(c3c2)n([C@@H]2CCCOC2)c(=O)n4C)cc1	
5.3		789 (≈ 330 µg/mL)	3	370	40	240	COCc1ccc(-c2ccc3ncc4c(c3c2)n([C@@H]2CC[C@@H](OC)C2)c(=O)n4C)cn1 (relative stereo)	

SMILES	hepatocyte CLint [6] [µL/min/1e6 cells]	IC50 [7] [µM]	solubility [8] [µM]	logD [9]	Papp A→B at […], 0.1 µM [11] [nm/s]	hepatocyte CLint [12] [µL/min/1e6 cells]	Papp A→B at […], 1 µM [14] [nm/s]	also measured
CC(C)n1c(=O)n(C)c2cnc3cc(F)c(-c4ccc(OCCCN5CCCCC5)nc4)cc3c21 [AZD-1390]		> 31.6	693 (≈ 331 µg/mL)		170		240	Vdss [1]: 3 L/kg; Vdss [2]: 24 L/kg; fraction unbound at 16 h [16]: 0.25; fraction unbound at 16 h [17]: 0.04; IC50 [18]: > 12.6 µM; IC50 [24]: 0.000794 µM; IC50 [20]: > 31.6 µM; fraction unbound at 16 h [22]: 0.26; bioavailability [3]: 74%; IC50 [23]: > 15.8 µM; bioavailability [5]: 66%

— ChEMBL document CHEMBL5528042, “Identification of Novel, Selective Ataxia-Telangiectasia Mutated Kinase Inhibitors with the Ability to Penetrate the Blood-Brain Barrier: The Discovery of AZD1390” (J Med Chem, 2024)
